Measured values from PubChem BioAssay (NCI).
Several values for one entry are separate records, joined by “and”; a condition that tells them apart may be missing. Equal entries are not always repeated.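 Exposure lasted 48 hours, with cells grown in 96-well plates and compounds tested at five concentrations. The concentration for 50% growth inhibition is given as GI50. TGI marks complete inhibition of growth.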

System: SNB-75 CNS
Experiment: NCI tumour cell line growth inhibition, 48 h

Row | SMILES | GI50 | TGI [µM]
1 | Nc1c(C(=O)c2cccc(CCS(N)(=O)=O)c2)cnn1-c1ccc(F)cc1 | > 25 µM | > 25
2 | OCc1cc2ccccc2c2c3c(ccc12)OCO3 | 18.4 µM | 64
3 | C[C@@H](Oc1cc(-n2cnc3ccc(CN4CCN(C)CC4)cc32)sc1C(N)=O)c1ccccc1C(F)(F)F | 0.0363 µM and 0.0249 µM | 
4 | CCOC1Oc2ccccc2C(=O)/C1=C/Nc1ccc(C(C)=O)cc1 (configuration not stated) | 40.6 µM | > 100
5 | CCN1CCN(Cc2ccc(NC(=O)c3cccc(C#Cc4cccc5[nH]nc(N)c45)c3)cc2C(F)(F)F)CC1 | 0.184 µM | 0.89
6 | CC(C)=CCC\C(C)=C/C=C/C(C)=C\C=C\C(C)=C/C=C/C=C(C)\C=C\C=C(C)/C=C/C=C(/C)CCC=C(C)C |  | > 100
7 | CCN(CC)N=Nc1c(C(N)=O)n[nH]c1C |  | > 100
8 | O=C1NC(=NCCc2cccc(F)c2)S/C1=C\c1ccc2ncccc2c1 | 3.79 µM | > 21.9
9 | CCOC(=O)Cn1c(C(F)(F)F)nc2nc(Cl)c(Cl)nc21 |  | > 100
10 | COC1/C=C/OC2(C)Oc3c(C)c(O)c4c(O)c(c(/C=N/Nc5ccc([N+](=O)[O-])cc5[N+](=O)[O-])c(O)c4c3C2=O)NC(=O)C(C)=C/C=C/C(C)C(O)C(C)C(O)C(C)C(OC(C)=O)C1C (configuration not stated) | 1.8 µM | 10.3

System: TK-10 renal
Experiment: NCI tumour cell line growth inhibition, 48 h

Row | SMILES | GI50 | TGI
11 | CN(C)c1ccc(/C=C\C2=[N+](C)c3ccccc3C2(C)C)cc1 | 1.25 µM | > 52.4 µM
12 | Nc1nc(-n2c(-c3ccccc3)nc3c(Br)cc(Br)cc3c2=O)nnc1-c1cccc(Cl)c1Cl | 3.96 µM | 20.8 µM
13 | C[N+](C)(C)CC(=O)N/N=C(/CC(=O)CC(C1=C(O)c2ccccc2OC1)c1ccccc1)C(=O)Nc1cccc(Cl)c1 (configuration not stated) |  | > 100 µM
14 | O=C1/C(=C/c2ccc(O)c(O)c2)CCC/C1=C\c1ccc(O)c(O)c1 |  | 14.9 µM
15 | COC(=O)/C=C1\S/C(=N\NC(=O)c2cc3ccc2/C=C\c2ccc(cc2)/C=C\3)N(c2ccccc2)C1=O | 2.03 µM | 5.6 µM
16 | COC([CH2][Hg][n]1cnc2c1c(=O)n(C)c(=O)n2C)CN1C(=O)c2ccccc2S1(=O)=O (configuration not stated) | > 100 µM | > 100 µM
17 | COc1ccc(CC2c3cc4c(cc3CCN2C)OCO4)c(C=O)c1OC (configuration not stated) |  | > 100 µM
18 | C=C(C)C(OC)C(O)CC1(C)CC(O)CC(C)(C2CCC3OC(C4(C)CCC(Br)C(C)(C)O4)CCC3(C)O2)O1 (configuration not stated) | 16 µM | 33.5 µM
19 | Cc1cc(-c2nc(C(=O)Nc3cc4oc(N5CCOCC5)nc4nc3N3CC[C@@H](O)C3)co2)ccn1 | 26.7 µM | > 100 µM
20 | COc1cc2c(cc1OCCCCN1CCN(CC(=O)Nc3ccc(Cl)cc3C(=O)c3ccccc3Cl)CC1)N=CC1CCCN1C2=O (configuration not stated) | 0.311 µM | 0.841 µM
21 | Cc1ccc(Cl)c2c(N=Nc3ccccc3[N+](=O)[O-])c(O)[nH]c12 |  | > 100 µM
22 | Nc1c(C(=O)c2cccc(CCS(N)(=O)=O)c2)cnn1-c1ccc(F)cc1 | > 25 µM | > 25 µM
23 | OCc1cc2ccccc2c2c3c(ccc12)OCO3 | 31.2 µM | 79.1 µM
24 | C[C@@H](Oc1cc(-n2cnc3ccc(CN4CCN(C)CC4)cc32)sc1C(N)=O)c1ccccc1C(F)(F)F | 2.69 µM and 1.46 µM | 17.3 µM and > 10 µM
25 | CCN1CCN(Cc2ccc(NC(=O)c3cccc(C#Cc4cccc5[nH]nc(N)c45)c3)cc2C(F)(F)F)CC1 | 0.631 µM | 1.75 µM
26 | CC(C)=CCC\C(C)=C/C=C/C(C)=C\C=C\C(C)=C/C=C/C=C(C)\C=C\C=C(C)/C=C/C=C(/C)CCC=C(C)C |  | > 100 µM
27 | CCN(CC)N=Nc1c(C(N)=O)n[nH]c1C |  | > 100 µM
28 | O=C1NC(=NCCc2cccc(F)c2)S/C1=C\c1ccc2ncccc2c1 | > 12.4 µM | > 25 µM
29 | CCOC(=O)Cn1c(C(F)(F)F)nc2nc(Cl)c(Cl)nc21 |  | > 100 µM

System: K-562 leukemia
Experiment: NCI tumour cell line growth inhibition, 48 h

Row | SMILES | GI50 [µM] | TGI [µM]
30 | CN(C)c1ccc(/C=C\C2=[N+](C)c3ccccc3C2(C)C)cc1 | 1.77 | > 100
31 | Nc1nc(-n2c(-c3ccccc3)nc3c(Br)cc(Br)cc3c2=O)nnc1-c1cccc(Cl)c1Cl | 4.7 | 7.66
32 | C[N+](C)(C)CC(=O)N/N=C(/CC(=O)CC(C1=C(O)c2ccccc2OC1)c1ccccc1)C(=O)Nc1cccc(Cl)c1 (configuration not stated) |  | > 100
33 | O=C1/C(=C/c2ccc(O)c(O)c2)CCC/C1=C\c1ccc(O)c(O)c1 |  | > 60.1
34 | COC(=O)/C=C1\S/C(=N\NC(=O)c2cc3ccc2/C=C\c2ccc(cc2)/C=C\3)N(c2ccccc2)C1=O | 3.15 | > 100
35 | COC([CH2][Hg][n]1cnc2c1c(=O)n(C)c(=O)n2C)CN1C(=O)c2ccccc2S1(=O)=O (configuration not stated) | > 100 | > 100
36 | COc1ccc(CC2c3cc4c(cc3CCN2C)OCO4)c(C=O)c1OC (configuration not stated) |  | > 100
37 | C=C(C)C(OC)C(O)CC1(C)CC(O)CC(C)(C2CCC3OC(C4(C)CCC(Br)C(C)(C)O4)CCC3(C)O2)O1 (configuration not stated) | 20.7 | > 68.5
38 | Cc1cc(-c2nc(C(=O)Nc3cc4oc(N5CCOCC5)nc4nc3N3CC[C@@H](O)C3)co2)ccn1 | 41.2 | > 100
39 | COc1cc2c(cc1OCCCCN1CCN(CC(=O)Nc3ccc(Cl)cc3C(=O)c3ccccc3Cl)CC1)N=CC1CCCN1C2=O (configuration not stated) | 0.208 | 2.82
40 | Cc1ccc(Cl)c2c(N=Nc3ccccc3[N+](=O)[O-])c(O)[nH]c12 |  | > 100
41 | C=CCOc1ccc2c(C)cc(=O)oc2c1C |  | > 100
42 | Nc1c(C(=O)c2cccc(CCS(N)(=O)=O)c2)cnn1-c1ccc(F)cc1 | > 25 | > 25
43 | OCc1cc2ccccc2c2c3c(ccc12)OCO3 | 40 | 
44 | C[C@@H](Oc1cc(-n2cnc3ccc(CN4CCN(C)CC4)cc32)sc1C(N)=O)c1ccccc1C(F)(F)F | 0.00317 | 
45 | CCOC1Oc2ccccc2C(=O)/C1=C/Nc1ccc(C(C)=O)cc1 (configuration not stated) | 16.1 | 40.5
46 | CCN1CCN(Cc2ccc(NC(=O)c3cccc(C#Cc4cccc5[nH]nc(N)c45)c3)cc2C(F)(F)F)CC1 |  | 0.154
47 | CC(C)=CCC\C(C)=C/C=C/C(C)=C\C=C\C(C)=C/C=C/C=C(C)\C=C\C=C(C)/C=C/C=C(/C)CCC=C(C)C |  | > 100
48 | O=C1NC(=NCCc2cccc(F)c2)S/C1=C\c1ccc2ncccc2c1 | 1.01 | > 25
49 | CCOC(=O)Cn1c(C(F)(F)F)nc2nc(Cl)c(Cl)nc21 |  | > 100

System: LOX IMVI melanoma
Experiment: NCI tumour cell line growth inhibition, 48 h

Row | SMILES | GI50 [µM] | TGI [µM]
50 | CN(C)c1ccc(/C=C\C2=[N+](C)c3ccccc3C2(C)C)cc1 | 0.356 | 14.6
51 | Nc1nc(-n2c(-c3ccccc3)nc3c(Br)cc(Br)cc3c2=O)nnc1-c1cccc(Cl)c1Cl | 4.06 | 37.2
52 | C[N+](C)(C)CC(=O)N/N=C(/CC(=O)CC(C1=C(O)c2ccccc2OC1)c1ccccc1)C(=O)Nc1cccc(Cl)c1 (configuration not stated) |  | > 100
